“Also recorded” adds a separate entry of the source. Bridges are numbered along the chain shown (N, C = ends). [ ]: non-standard residue; d: D form. Ahx = NCCCCCC(=O)O
Key:
[1] = system: Normal human fibroblasts (WS1 cells); assay: Lactate dehydrogenase (LDH) leakage assay, WS1 fibroblasts; type: cell-based; conditions: 25 μM and 10 μM, 6 hours, no serum
Text: (§1) Accumulation of cytoplasmic lactate dehydrogenase (LDH) in the growth medium was used as a metric of cell membrane damage. LDH was detected by the CytoTox 96 Non-Radioactive Cytotoxicity Assay Kit (Promega). The 0.8% Triton X-100 treatment (Lysed) represents the maximum LDH leakage in this experiment and its reading was set to 100%. DMSO treatment served as the vehicle control and provided an indication of the presence of trace amounts of LDH in the serum and spontaneous LDH leakage from cells. The value obtained in the presence of DMSO was set to 0%. Data are shown as mean±SD (n=3). (B) Normal human fibroblasts (WS 1 cells) were treated exactly as in (A). Data are shown as mean±SD (n=3).S
(§2) Saos-2 and WS 1 cells were seeded into 96-well plates (20,000 cells per well) and incubated at 37° C. […] LDH leakage into media was detected by the CytoTox 96 Non-Radioactive Cytotoxicity Assay Kit (Promega G1780) per manufacture's protocol. Assay background was evaluated by using the LDH reading from wells containing only media and PPI antagonists with or without 10% FBS and was subtracted from the values obtained in the presence of the PPI antagonists. Cells lysed by 0.8% Triton X-100 (provided by the Kit), a concentration sufficient to ensure lyse all cells but low enough not to interfere with the LDH assay, represents the maximum LDH leakage in this experiment and its reading is set to 100%. […]

Saos-2 cells = assay: Lactate dehydrogenase (LDH) leakage assay, Saos-2 cells; conditions: 25 μM and 10 μM, 6 hours, no serum
Text: as §1, §2

p53-Mdm2 complexes [2] = target: T1, p53-Mdm2 complexes (Homo sapiens, UniProt Q00987); assay: BiLC assay using cell lysates, p53-Mdm2; type: biochemical; conditions: no FBS
T1 construct: cLuc-linker-FLAG-Mdm2-108 (generated); cLuc (C-terminal split firefly luciferase fragment, amino acids 398-550); expressed in transfected cells; host or cells: Saos-2 134-385 (single-copy RMCE integration, doxycycline-induced); the lysate assay text says Saos-2 or U2OS reporter cells
T1 sequence (Q00987 2-108, one chain of several): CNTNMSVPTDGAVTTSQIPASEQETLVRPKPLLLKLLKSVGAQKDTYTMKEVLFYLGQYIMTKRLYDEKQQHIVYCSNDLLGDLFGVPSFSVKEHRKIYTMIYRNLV
Experimental: FIGS. 5A and 5B show a set of graphs illustrating that the BiLC lysate assay can be used to determine if serum prevents SAH peptides from disrupting p53-Mdm2 or p53-Mdm4 complexes. (A) Cell lysates obtained from nLuc-p53 and cLuc-Mdm2 or nLuc-p53 and cLuc-Mdm4 ReBiL expressing reporter cells were incubated with the indicated PPI antagonists in the absence of FBS in a 384-well plate at room temperature for 10 minutes. Steady-Glo luciferase reagent was added, and luminescence was measured in a Tecan M200 luminometer at 26° C. Data are shown as mean±standard deviation (n=3) and normalized to the luminescent reading of DMSO (set to 100%). (B) The BiLC lysate assays were identical to (A) except for the inclusion of 10% FBS. Data are shown as mean±standard deviation (n=3) and normalized to the luminescent reading of DMSO (set to 100%).
(§3) (A) Small molecule PPI antagonists were tested in p53-Mdm2 and p53-Mdm4 BiLC lysate assays without FBS. […] Data are shown as mean±standard deviation (n=3) and normalized to the luminescent reading of DMSO (set to 100%).
The 4× concentrated drugs diluted in DMEM/F12 media were pipetted into 384 well plates, 10 μl per well. […] 20 μl of luciferin reagents were added (Promega Bright-Glo E2620 or Steady-Glo E2520) into each well and luminescence was measured in a Tecan M200: integration time 0.5 seconds, 3˜5 minutes per cycle for total 30 minutes at 26° C.

p53-Mdm4 complexes [3] = target: T2, p53-Mdm4 complexes (Homo sapiens, UniProt O15151); assay: Real-time BiLC (ReBiL) assay in living cells, p53-Mdm4 reporter (Saos-2 134-354)
T2 sequence (O15151 2-111): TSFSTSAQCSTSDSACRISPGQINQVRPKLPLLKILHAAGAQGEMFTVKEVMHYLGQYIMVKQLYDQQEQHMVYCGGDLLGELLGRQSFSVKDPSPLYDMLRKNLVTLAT

p53-Mdm4 complexes [4] = target: T2, p53-Mdm4 complexes; assay: BiLC assay using cell lysates, p53-Mdm4; type: biochemical; set-up: 2-111) was cloned into pLi317; cLuc (C-terminal split firefly luciferase fragment, amino acids 398-550; expressed in transfected cells; host or cells: Saos-2 134-354 (single-copy RMCE integration, doxycycline-induced); the lysate assay text says Saos-2 or U2OS reporter cells; conditions: no FBS
Experimental: (A) Cell lysates obtained from nLuc-p53 and cLuc-Mdm2 or nLuc-p53 and cLuc-Mdm4 ReBiL expressing reporter cells were incubated with the indicated PPI antagonists in the absence of FBS in a 384-well plate at room temperature for 10 minutes. Steady-Glo luciferase reagent was added, and luminescence was measured in a Tecan M200 luminometer at 26° C. Data are shown as mean±standard deviation (n=3) and normalized to the luminescent reading of DMSO (set to 100%). (B) The BiLC lysate assays were identical to (A) except for the inclusion of 10% FBS. Data are shown as mean±standard deviation (n=3) and normalized to the luminescent reading of DMSO (set to 100%).
as §3
The 4× concentrated drugs diluted in DMEM/F12 media were pipetted into 384 well plates, 10 μl per well. Cells were washed with PBS-twice and lysed with PLB buffer (100 mM Tris-HCl pH 7.5; 0.5 mM EDTA; 150 mM NaCl; 0.1% Triton X-100, 1 mM sodium orthovanadate, 50 mM sodium fluoride, and Roche Complete Mini Protease Inhibitor Cocktail). […] The clear lysates were collected, diluted with DMEM (˜300 μl DMEM added into 100 μl lysates); 10 μl of diluted lysates were pipetted into each of the 384-wells, and the plates were incubated at room temperature for 10 minutes. 20 μl of luciferin reagents were added (Promega Bright-Glo E2620 or Steady-Glo E2520) into each well and luminescence was measured in a Tecan M200: integration time 0.5 seconds, 3˜5 minutes per cycle for total 30 minutes at 26° C.

p53-Mdm2 complexes [5] = target: T1, p53-Mdm2 complexes; assay: Real-time BiLC (ReBiL) assay in living cells, p53-Mdm2 reporter (Saos-2 134-385); type: cell-based
Experimental: Data shown are mean±standard deviation (n=8). […] Actin was used as a loading control. […] Luminescent signals were measured every 10 minutes for 10 hours in a Tecan-M200 at 37° C. Data shown are mean±standard deviation (n=4). […] The nLuc-p53 and cLuc-Mdm2 fusion proteins were detected by anti-FLAG and anti-HA antibodies, respectively, and Actin was used as a loading control.
At Time=0, the cells were washed with Dulbecco's modified Eagle medium (DMEM) once, and treated with new media containing different PPI antagonists and with or without 10% fetal bovine serum (FBS).
Two strategies were used to avert cytotoxicity or cell cycle arrest that could be generated by wild type p53 activation. First, p53 null Saos-2 cells were used as the host cell line for ReBiL reporters.
The Saos-2 ReBiL reporter cells were washed, trypsinized and cell numbers were determined. […] Supernatants were discarded, ReBiL reporter cells were resuspended with DMEM/F12 (phenol-red free) and 20 μl cells were pipetted into each well. […]
(a) The following protocol was used to evaluate small molecule PPI antagonists. […] The next day, the cells were washed, trypsinized, and cell numbers were determined. […] The plate was sealed with a MicroAmp Optical Adhesive Film, and luminescence was measured in a Tecan M200: integration time 2 seconds, 5˜10 minutes per cycle for total 6 hours at 37° C.

[6] = target: T3, Mdm2-Mdm4 N-terminal BiLC pair (Homo sapiens, UniProt O15151+Q00987); assay: Real-time BiLC assay in U2OS Mdm4-111/Mdm2-108 ReBiL reporter cells (U2OS 134-544); type: cell-based; conditions: U2OS 134-544 cells, compound with doxycycline at Time=0, 24 hours
T3 construct: linker-FLAG-Mdm2-108 (generated by; 2-111) was cloned into pLi223; cLuc (split firefly luciferase amino acids 398-550); nLuc (split firefly luciferase amino acids 1-416); expressed in transfected cells; host or cells: U2OS 134-544 (RMCE integration, doxycycline-induced)
T3 sequence (Q00987 2-108, one chain of several): as the sequence (Q00987 2-108, one chain of several) above
Text: Data are shown as mean±standard deviation (n=6). […] Data are shown as mean±standard deviation (n=4).

[7] = living Saos-2 cells, doxycycline withdrawal, small molecule protocol

Compound | LDH leakage (cell membrane damage), absence of serum (Saos-2 cells) | p53-Mdm2 disruption in lysate BiLC assay, without FBS (p53-Mdm2 complexes [2]) | p53-Mdm4 disruption in lysate BiLC assay, without FBS (p53-Mdm4 complexes [4]) | further results
COc1ccc(C2=N[C@@H](c3ccc(Cl)cc3)[C@@H](c3ccc(Cl)cc3)N2C(=O)N2CCNC(=O)C2)c(OC(C)C)c1 [Nutlin-3a] | failed to induce membrane leakage |  |  | LDH leakage (cell membrane damage), absence of serum [1]: failed to induce membrane leakage
CCOc1cc(/C=C2/C(=O)N(c3ccccc3)N=C2C)cc(Cl)c1OCC(=O)OC [SJ-172550] |  | no activity | no activity; also recorded: poor p53/Mdm4 antagonist | p53-Mdm4 BiLC signal (newly synthesized complexes) (p53-Mdm4 complexes [3]; living Saos-2 134-354 cells, compound added with doxycycline at Time=0, 10% FBS): No decrease in p53-Mdm4 luciferase signal was detected; also recorded: virtually no activity
MI-219 |  |  |  | Ability to interfere selectively with p53-Mdm2 interaction (p53-Mdm2 complexes [5]; ReBiL strategy): interfere selectively with p53-Mdm2 interaction was confirmed
RO-5963 |  | no activity | no activity | Disruption of pre-formed p53-Mdm2 BiLC complexes (p53-Mdm2 complexes [5]; [7]): did not efficiently disrupt; Mdm2-Mdm4 N-terminal domain association (luminescent signal) [6]: increased luminescent signals were detected; Disruption of pre-formed p53-Mdm4 BiLC complexes (p53-Mdm4 complexes [3]; [7]): did not efficiently disrupt
cyclo(ACICRGNGYCG[Ahx]TSFAEYWNLLSGVCPKILQRCRRDSDCPG) (disulfide 2-26, 4-33, 10-39) [McoTi-1-PMI] | all except one (McoTi-1-PMI), damage cell membranes |  |  | 

— US20150010932A1, “METHODS FOR ASSAYING PROTEIN-PROTEIN INTERACTIONS” (Salk Institute for Biological Studies, priority 2013, published 2015)
